The source made the active and inactive calls. No cut-off for these calls is given here.

Assay [1] can be described thus: Cytotoxicity against human U87MG cells after 6 days. It counts as functional, U-87MG ATCC. The note with it: U-87 MG, 144 h, read-out: LD50 (the source's name).
A further assay concerns U-87MG ATCC. In words: Cytotoxicity against human U87MG cells at 250 nM after 6 days. It counts as functional, cell-based.

As for `CC[C@@]1(OC(=O)OCCOCCOCCOCCOC(=O)CCCC[C@@H]2CCSS2)C(=O)OCc2c1cc1n(c2=O)Cc2cc3ccccc3nc2-1`, in assay [1], the CC50 amounted to 20 nM. Moreover, the outcome in the assay with U-87MG ATCC was Active.
For `CC[C@@]1(O)C(=O)OCc2c1cc1n(c2=O)Cc2cc3ccccc3nc2-1` [CAMPTOTHECIN], in assay [1], the CC50 came to 20 nM. For the same compound, the result in the assay with U-87MG ATCC was Active.

Values taken from ChEMBL document CHEMBL1221247, “Oxidative stimuli-responsive nanoprodrug of camptothecin kills glioblastoma cells” (2010).
